Results published in patent US20130190289A1, “COMPOUNDS AND METHODS FOR THE TREATMENT OR PREVENTION OF FLAVIVIRUS INFECTIONS” (priority 2010, published 2013).
Like-named read-outs stand apart in the source and are kept apart here.

Assays:
[1] = [3H]Thymidine incorporation assay (cell toxicity); conditions: human
[2] = test system: HCV replicon (genotype 1b) in Huh7 cell line ET; assay: microbe, parasite or virus in culture; assay type: cell-based, HCV genotype 1b; conditions: Hepatitis C virus
[3] = Huh-7, 96 h, read-out: HCV-Replicon (Luci-ET)-1b_IC50
[4] = Huh-7, read-out: HCV-Replicon-(Luci-ET) 1b_IC50

## O=C(O)c1sc(-c2ccc(Oc3ccccc3)cc2)cc1N(CC(=O)N1CCOCC1)C(=O)c1ccc(Cl)cc1Cl [Compound 152, 3-[(2,4-dichlorobenzoyl)-(2-morpholino-2-oxo-ethyl)amino]-5-(4-phenoxyphenyl)thiophene-2-carboxylic acid]
[1]
  CC50 at 72 h: 10000 to 100000 nM
[2]; [3]
  IC50: 1000 to 10000 nM

## CC(C)C#Cc1cc(N(CC(=O)N(C)C)C(=O)C2CCC(C)CC2)c(C(=O)O)s1 (stereo not shown) [Compound 67]
[1]
  CC50 at 72 h: > 100000 nM
[2]; [4]
  IC50: < 100 nM

## CC[C@@H](C(=O)N(C)C)N(c1cc(C#CC(C)C)sc1C(=O)O)C(=O)[C@H]1CC[C@H](C)CC1 [Compound 89, 3-[[(1S)-1-(dimethylcarbamoyl)propyl]-(trans-4-methylcyclohexanecarbonyl)amino]-5-(3-methylbut-1-ynyl)thiophene-2-carboxylic acid]
[1]
  CC50 at 72 h: > 100000 nM
[2]; [4]
  IC50: < 100 nM

## COC1CCN(C(=O)C[C@H](C)N(c2cc(C#CC(C)(C)C)sc2C(=O)O)C(=O)[C@H]2CC[C@H](C)CC2)CC1 [Compound 115, 5-(3,3-Dimethylbut-1-ynyl)-3-[[(1S)-3-(4-methoxy-1-piperidyl)-1-methyl-3-oxo-propyl]-(trans-4-methylcyclohexanecarbonyl)amino]thiophene-2-carboxylic acid]
[1]
  CC50 at 72 h: > 100000 nM
[2]; [4]
  IC50: < 100 nM

## CC1COCCN1C(=O)[C@H](C)N(c1cc(C#CC(C)(C)C)sc1C(=O)O)C(=O)[C@H]1CC[C@H](C)CC1 (stereo partly drawn) [Compound 47, 5-(3,3-dimethylbut-1-ynyl)-3-[(trans-4-methylcyclohexanecarbonyl)-[(1S)-1-methyl-2-(3-methylmorpholin-4-yl)-2-oxo-ethyl]amino]thiophene-2-carboxylic acid]
[1]
  CC50 at 72 h: > 100000 nM
[2]; [4]
  IC50: < 100 nM

## CC(CN(c1cc(C#CC(C)(C)C)sc1C(=O)O)C(=O)[C@H]1CC[C@H](C)CC1)C(=O)N1CCOCC1 (relative stereo) [Compound 104, 5-(3,3-Dimethylbut-1-ynyl)-3-[(trans-4-methylcyclohexanecarbonyl)-(2-methyl-3-morpholino-3-oxo-propyl)amino]thiophene-2-carboxylic acid]
[1]
  CC50 at 72 h: > 100000 nM
[2]; [4]
  IC50: < 100 nM

## COC(C)(C)C#Cc1cc(N(CC(=O)N2CCOCC2)C(=O)[C@H]2CC[C@H](C)CC2)c(C(=O)O)s1 [Compound 129, 5-(3-methoxy-3-methyl-but-1-ynyl)-3-[(trans-4-methylcyclohexanecarbonyl)-(2-morpholino-2-oxo-ethyl)amino]thiophene-2-carboxylic acid]
[1]
  CC50 at 72 h: > 100000 nM
[2]; [3]
  IC50: 100 to 1000 nM

## CCC1CCC(C(=O)N(c2cc(C#CC(C)(C)C)sc2C(=O)O)[C@@H](COC)C(=O)N2CCCC2)CC1 (stereo partly drawn) [Compound 63, 5-(3,3-Dimethylbut-1-ynyl)-3-[(4-ethylcyclohexanecarbonyl)-[(1S)-1-(methoxymethyl)-2-oxo-2-pyrrolidin-1-yl-ethyl]amino]thiophene-2-carb oxylic acid]
[1]
  CC50 at 72 h: 10000 to 100000 nM
[2]; [4]
  IC50: 100 to 1000 nM

## COC1CN(C(=O)C[C@H](C)N(c2cc(C#CC(C)(C)C)sc2C(=O)O)C(=O)[C@H]2CC[C@H](C)CC2)C1 [Compound 116, 5-(3,3-Dimethylbut-1-ynyl)-3-[[(1S)-3-(3-methoxyazetidin-1-yl)-1-methyl-3-oxo-propyl]-(trans-4-methylcyclohexanecarbonyl)amino]thiophene-2-carboxylic acid]
[1]
  CC50 at 72 h: > 100000 nM
[2]; [4]
  IC50: < 100 nM

## C[C@H](CC(=O)N1CCOCC1)N(c1cc(C#CC(C)(C)C)sc1C(=O)O)C(=O)[C@H]1CC[C@H](C)CC1 [Compound 106, 5-(3,3-Dimethylbut-1-ynyl)-3-[(trans-4-methylcyclohexanecarbonyl)-[(1R)-1-methyl-3-morpholino-3-oxo-propyl]amino]thiophene-2-carboxylic acid]
[1]
  CC50 at 72 h: > 100000 nM
[2]; [4]
  IC50: < 100 nM

## C[C@H]1CC[C@H](C(=O)N(CC(=O)N2CCOCC2)c2cc(-c3ccccc3)sc2C(=O)O)CC1 [Compound 121, 3-[(trans-4-methylcyclohexanecarbonyl)-N-(2-morpholino-2-oxoethyl)amino]-5-phenylthiophene-2-carboxylic acid]
[1]
  CC50 at 72 h: > 100000 nM
[2]; [3]
  IC50: 1000 to 10000 nM

## C[C@@H](C(=O)N1CCC(O)CC1)N(c1cc(C#CC(C)(C)C)sc1C(=O)O)C(=O)[C@H]1CC[C@H](C)CC1 [Compound 20, 5-(3,3-Dimethylbut-1-ynyl)-3-[[(1S)-2-(4-hydroxy-1-piperidyl)-1-methyl-2-oxo-ethyl]-(trans-4-methylcyclohexanecarbonyl)amino]thiophene-2-carboxylic acid]
[1]
  CC50 at 72 h: > 100000 nM
[2]; [4]
  IC50: < 100 nM

## CCN(CC)C(=O)[C@H](C)N(c1cc(C#CC(C)(C)C)sc1C(=O)O)C(=O)[C@H]1CC[C@H](C)CC1 [Compound 8, 3-[[(1S)-2-(diethylamino)-1-methyl-2-oxo-ethyl]-(trans-4-methylcyclohexanecarbonyl)amino]-5-(3,3-dimethylbut-1-ynyl)thiophene-2-carboxylic acid]
[1]
  CC50 at 72 h: > 100000 nM
[2]; [4]
  IC50: < 100 nM

## COC1CN(C(=O)[C@H](C)N(c2cc(C#CC(C)(C)C)sc2C(=O)O)C(=O)[C@H]2CC[C@H](C)CC2)C1 [Compound 52, 5-(3,3-Dimethylbut-1-ynyl)-3-[[(1S)-2-(3-methoxyazetidin-1-yl)-1-methyl-2-oxo-ethyl]-(trans-4-methylcyclohexanecarbonyl)amino]thiophene-2-carboxylic acid]
[1]
  CC50 at 72 h: > 100000 nM
[2]; [4]
  IC50: < 100 nM

## C[C@@H](C(=O)N1CC[C@H](CO)C1)N(c1cc(C#CC(C)(C)C)sc1C(=O)O)C(=O)[C@H]1CC[C@H](C)CC1 [Compound 39, 5-(3,3-Dimethylbut-1-ynyl)-3-[[(1S)-2-[(3S)-3-(hydroxymethyl)pyrrolidin-1-yl]-1-methyl-2-oxo-ethyl]-(trans-4-methylcyclohexanecarbonyl)amino]thiophene-2-carboxylic acid]
[1]
  CC50 at 72 h: > 100000 nM
[2]; [4]
  IC50: < 100 nM

## CC(C)C#Cc1cc(N(CC(=O)N2CCNCC2)C(=O)C2CCC(C)CC2)c(C(=O)O)s1 (stereo not shown) [Compound 69]
[1]
  CC50 at 72 h: > 100000 nM
[2]; [4]
  IC50: < 100 nM

## C[C@H]1CC[C@H](C(=O)N(CC(=O)N2CCOCC2)c2cc(C#CC3CC3)sc2C(=O)O)CC1 [Compound 128, 5-(2-cyclopropylethynyl)-3-[(trans-4-methylcyclohexanecarbonyl)-(2-morpholino-2-oxo-ethyl)amino]thiophene-2-carboxylic acid]
[1]
  CC50 at 72 h: > 100000 nM
[2]; [3]
  IC50: < 100 nM

## CN1CCN(C(=O)CN(c2cc(C#CC(C)(C)C)sc2C(=O)O)C(=O)[C@H]2CC[C@H](C)CC2)CC1 [Compound 119, 5-(3,3-dimethylbut-1-ynyl)-3-[(trans-4-methylcyclohexanecarbonyl)-[2-(4-methylpiperazin-1-yl)-2-oxo-ethyl]amino]thiophene-2-carboxylic acid]
[2]; [4]
  IC50: < 100 nM

## CC(C)(C)C#Cc1cc(N(C(=O)[C@H]2CC[C@H](C)CC2)[C@H]2CCNC2=O)c(C(=O)O)s1 [Compound 120, 5-(3,3-dimethylbut-1-ynyl)-3-[(trans-4-methylcyclohexanecarbonyl)-[(3S)-2-oxopyrrolidin-3-yl]amino]thiophene-2-carboxylic acid]
[2]; [4]
  IC50: 100 to 1000 nM

## CN(C)CCN(C)C(=O)CN(c1cc(C#CC(C)(C)C)sc1C(=O)O)C(=O)[C@H]1CC[C@H](C)CC1 [Compound 118, 3-[[2-[2-Dimethylaminoethyl(methyl)amino]-2-oxo-ethyl]-(trans-4-methylcyclohexanecarbonyl)amino]-5-(3,3-dimethylbut-1-ynyl)thiophene-2-carboxylic acid]
[2]; [4]
  IC50: < 100 nM
